Reference: patent US10065970B2 (Genentech, Inc., priority 2015, dated 2018)
Structures can show the parent of a compound that is named as a salt.

Molecular target: PI3Kα (alpha) (Homo sapiens (Human), UniProt P42336)
Assay: p110α (alpha) PI3K Binding Assay (ADP-Glo lipid kinase reaction)
Type: biochemical
Settings: PI3K alpha 0.2 nM, ATP 40 μM, PIP2:3PS 50 μM, 120 min, room temperature; Ki by Morrison Equation; read-out: PI3Kα-(alpha) ATP (Ki) micromolar
Outline: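 Enzyme with PIP2:3PS lipid substrate and ATP/MgCl2 in 50 mM HEPES, 50 mM NaCl, 3 mM MgCl2, 0.01% BSA, 1% DMSO, 120 min at room temperature. ADP formed detected by ADP-Glo luminescence. Ki from 10-point dose-response curves via the Morrison equation.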

Sequence of PI3Kα (alpha) (P42336 whole entry): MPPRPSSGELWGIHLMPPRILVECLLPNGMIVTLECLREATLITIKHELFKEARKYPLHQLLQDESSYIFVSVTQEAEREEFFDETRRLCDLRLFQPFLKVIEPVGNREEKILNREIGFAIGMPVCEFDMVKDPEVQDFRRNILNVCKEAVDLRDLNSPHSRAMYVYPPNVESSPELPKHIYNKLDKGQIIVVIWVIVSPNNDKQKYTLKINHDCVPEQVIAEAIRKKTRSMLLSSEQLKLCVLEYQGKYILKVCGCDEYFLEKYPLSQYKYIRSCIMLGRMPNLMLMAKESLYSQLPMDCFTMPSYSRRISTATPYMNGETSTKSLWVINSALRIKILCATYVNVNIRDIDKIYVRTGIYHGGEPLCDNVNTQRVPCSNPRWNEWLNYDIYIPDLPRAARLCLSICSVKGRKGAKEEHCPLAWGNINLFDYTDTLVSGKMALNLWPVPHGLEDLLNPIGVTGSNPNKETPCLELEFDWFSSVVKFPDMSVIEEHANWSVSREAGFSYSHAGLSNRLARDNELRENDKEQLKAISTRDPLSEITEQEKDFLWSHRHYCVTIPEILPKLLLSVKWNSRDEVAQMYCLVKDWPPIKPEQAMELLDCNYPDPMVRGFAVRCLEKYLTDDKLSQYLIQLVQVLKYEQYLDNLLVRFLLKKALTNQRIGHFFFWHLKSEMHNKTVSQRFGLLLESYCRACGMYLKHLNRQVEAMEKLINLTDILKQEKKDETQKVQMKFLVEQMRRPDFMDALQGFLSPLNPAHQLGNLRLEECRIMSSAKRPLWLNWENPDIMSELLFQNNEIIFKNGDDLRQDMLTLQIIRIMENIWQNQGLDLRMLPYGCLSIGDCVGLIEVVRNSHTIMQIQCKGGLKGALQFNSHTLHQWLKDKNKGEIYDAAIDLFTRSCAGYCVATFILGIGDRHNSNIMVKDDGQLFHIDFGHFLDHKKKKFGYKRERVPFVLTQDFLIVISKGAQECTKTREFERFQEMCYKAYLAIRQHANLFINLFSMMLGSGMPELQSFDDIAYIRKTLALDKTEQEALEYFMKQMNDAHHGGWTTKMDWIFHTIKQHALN
Sequence of PI3Kα (alpha) (P27986 whole entry partner): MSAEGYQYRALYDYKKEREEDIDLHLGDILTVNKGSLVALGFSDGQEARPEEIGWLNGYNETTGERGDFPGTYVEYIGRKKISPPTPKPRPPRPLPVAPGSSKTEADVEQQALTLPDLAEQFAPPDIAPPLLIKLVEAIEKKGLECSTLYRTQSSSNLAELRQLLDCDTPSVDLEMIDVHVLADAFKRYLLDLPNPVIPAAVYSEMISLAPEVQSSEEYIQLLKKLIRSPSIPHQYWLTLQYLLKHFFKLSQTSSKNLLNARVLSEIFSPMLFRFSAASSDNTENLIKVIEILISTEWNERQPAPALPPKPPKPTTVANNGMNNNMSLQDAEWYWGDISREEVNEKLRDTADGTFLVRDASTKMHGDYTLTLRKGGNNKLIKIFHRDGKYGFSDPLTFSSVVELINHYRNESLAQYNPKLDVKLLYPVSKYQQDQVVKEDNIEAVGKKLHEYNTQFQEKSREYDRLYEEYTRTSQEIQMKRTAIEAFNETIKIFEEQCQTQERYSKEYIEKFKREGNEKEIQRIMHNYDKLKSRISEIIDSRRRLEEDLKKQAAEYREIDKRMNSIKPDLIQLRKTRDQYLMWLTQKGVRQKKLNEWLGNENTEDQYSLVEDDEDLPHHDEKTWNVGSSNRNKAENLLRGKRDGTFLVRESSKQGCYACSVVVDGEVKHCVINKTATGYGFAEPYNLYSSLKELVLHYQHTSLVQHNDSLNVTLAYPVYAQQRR

Compound | Ki [nM]
COc1cnc2cc(-c3nc4cc(N[C@H](C(N)=O)C5CC5)cc5c4n3CCCO5)ccc2n1 [Example 173, (S)-2-Cyclopropyl-2-((1-(2-methoxyquinoxalin-6-yl)-8,9-dihydro-7H-6-oxa-2,9a-diazabenzo[cd]azulen-4-yl)amino)acetamide] | 46.5
N#CC1CCCN(c2nc3cc(NC(C(N)=O)C4CC4)cc4c3n2CCCO4)C1 [Example 174, (S)-2-[1-(3-Cyanopiperidin-1-yl)-8,9-dihydro-7H-6-oxa-2,9a-diazabenzo[cd]azulen-4-ylamino]-2-cyclopropylacetamide] | 262
CS(=O)(=O)c1cncc(-c2nc3cc(N[C@H](C(N)=O)C4CC4)cc4c3n2CCCO4)c1 [Example 175, (S)-2-Cyclopropyl-2-((1-(5-(methylsulfonyl)pyridin-3-yl)-8,9-dihydro-7H-6-oxa-2,9a-diazabenzo[cd]azulen-4-yl)amino)acetamide] | 26
NC(=O)[C@@H](Nc1cc2c3c(c1)nc(-c1ccnc4[nH]cnc14)n3CCCO2)C1CC1 [Example 176, (S)-2-((1-(3H-Imidazo[4,5-b]pyridin-7-yl)-8,9-dihydro-7H-6-oxa-2,9a-diazabenzo[cd]azulen-4-yl)amino)-2-cyclopropylacetamide] | 326
NC(=O)[C@@H](Nc1cc2c3c(c1)nc(N1CCc4nccnc4C1)n3CCCO2)C1CC1 [Example 179, (S)-2-Cyclopropyl-2-((1-(7,8-dihydropyrido[3,4-b]pyrazin-6(5H)-yl)-8,9-dihydro-7H-6-oxa-2,9a-diazabenzo[cd]azulen-4-yl)amino)acetamide] | 154
NC(=O)[C@@H](Nc1cc2c3c(c1)nc(N1CCCOCC1)n3CCCO2)C1CC1 [Example 180, (S)-2-((1-(1,4-Oxazepan-4-yl)-8,9-dihydro-7H-6-oxa-2,9a-diazabenzo[cd]azulen-4-yl)amino)-2-cyclopropylacetamide] | 664
NC(=O)[C@@H](Nc1cc2c3c(c1)nc(N1CCCC(O)C1)n3CCCO2)C1CC1 (stereo partly drawn) [Example 182, (S)-2-Cyclopropyl-2-[1-(3-hydroxypiperidin-1-yl)-8,9-dihydro-7H-6-oxa-2,9a-diazabenzo[cd]azulen-4-ylamino]acetamide] | 398
NC(=O)[C@@H](Nc1cc2c3c(c1)nc(-c1ccc4sc(N)nc4c1)n3CCCO2)C1CC1 [Example 184, (S)-2-((1-(2-Aminobenzo[d]thiazol-5-yl)-8,9-dihydro-7H-6-oxa-2,9a-diazabenzo[cd]azulen-4-yl)amino)-2-cyclopropylacetamide] | 0.491
CNc1nc2cc(-c3nc4cc(N5CCC[C@H]5C(N)=O)cc5c4n3CCCO5)ccc2o1 [Example 186, (S)-1-(1-(2-(methylamino)benzo-[d]oxazol-5-yl)-8,9-dihydro-7H-6-oxa-2,9a-diazabenzo[cd]azulen-4-yl)pyrrolidine-2-carboxamide] | 6.93
NC(=O)[C@@H](Nc1cc2c3c(c1)nc(-c1ccc4nc(N)cnc4c1)n3CCCO2)C1CC1 [Example 187, (S)-2-((1-(2-Aminoquinoxalin-6-yl)-8,9-dihydro-7H-6-oxa-2,9a-diazabenzo[cd]azulen-4-yl)amino)-2-cyclopropylacetamide] | 0.056
NC(=O)c1ccc(-c2nc3cc(N[C@H](C(N)=O)C4CC4)cc4c3n2CCCO4)cn1 [Example 191, (S)-5-(4-((2-Amino-1-cyclopropyl-2-oxoethyl)amino)-8,9-dihydro-7H-6-oxa-2,9a-diazabenzo[cd]azulen-1-yl)picolinamide] | 105
NC(=O)[C@@H](Nc1cc2c3c(c1)nc(-c1ccc4nc(Cl)nn4c1)n3CCCO2)C1CC1 [Example 197, (S)-2-((1-(2-Chloro-[1,2,4]triazolo[1,5-a]pyridin-6-yl)-8,9-dihydro-7H-6-oxa-2,9a-diazabenzo[cd]azulen-4-yl)amino)-2-cyclopropylacetamide] | 27.2
OCc1cnc2cc(-c3nc4cc(Br)cc5c4n3CCCO5)ccc2n1 [Example 198, (6-(4-Bromo-8,9-dihydro-7H-6-oxa-2,9a-diazabenzo[cd]azulen-1-yl)quinoxalin-2-yl)methanol] | 677
NC(=O)[C@@H]1CCCN1c1cc2c3c(c1)nc(-c1ccc4[nH]cnc4c1)n3CCCO2 [Example 199, (S)-1-(1-(1H-Benzo[d]imidazol-5-yl)-8,9-dihydro-7H-6-oxa-2,9a-diazabenzo[cd]azulen-4-yl)pyrrolidine-2-carboxamide] | 33.2
C[C@H](Oc1cc2c3c(c1)nc(-c1ccc4oc(N)nc4c1)n3CCCCO2)C(N)=O [Example 204, (S)-2-((1-(2-Aminobenzo[d]oxazol-5-yl)-7,8,9,10-tetrahydro-6-oxa-2,10a-diazacycloocta[cd]inden-4-yl)oxy)propanamide] | < 0.02
Cc1cc(-c2nc3cc(N[C@H](C(N)=O)C4CC4)cc4c3n2CCCO4)cc2nc(N)oc12 [Example 205, (S)-2-((1-(2-Amino-7-methylbenzo[d]oxazol-5-yl)-8,9-dihydro-7H-6-oxa-2,9a-diazabenzo[cd]azulen-4-yl)amino)-2-cyclopropylacetamide] | 0.191
NC(=O)[C@@H]1CCCN1c1cc2c3c(c1)nc(-c1ccnc4[nH]nnc14)n3CCCO2 [Example 206, (S)-1-(1-(3H-[1,2,3]Triazolo[4,5-b]pyridin-7-yl)-8,9-dihydro-7H-6-oxa-2,9a-diazabenzo[cd]azulen-4-yl)pyrrolidine-2-carb oxamide] | 25.9
NC(=O)[C@@H](Nc1cc2c3c(c1)nc(-c1ccc4nc(N)oc4c1)n3CCCO2)C1CC1 [Example 207, (S)-2-((1-(2-Aminobenzo[d]oxazol-6-yl)-8,9-dihydro-7H-6-oxa-2,9a-diazabenzo[cd]azulen-4-yl)amino)-2-cyclopropylacetamide] | 0.988
NC(=O)[C@@H](Nc1cc2c3c(c1)nc(-c1ccc4oc(N)nc4c1)n3CCO2)C1CC1 [Example 208, (S)-2-((2-(2-Aminobenzo[d]oxazol-5-yl)-3,4-dihydro-5-oxa-1,2a-diazaacenaphthylen-7-yl)amino)-2-cyclopropylacetamide] | < 0.02

Now from value to compound:

Ki [nM] | Compound
234 | NC(=O)[C@@H](Nc1cc2c3c(c1)nc(-c1ccnc4sccc14)n3CCCO2)C1CC1 [Example 177, (S)-2-Cyclopropyl-2-((1-(thieno[2,3-b]pyridin-4-yl)-8,9-dihydro-7H-6-oxa-2,9a-diazabenzo[cd]azulen-4-yl)amino)acetamide]
32.2 | NC(=O)[C@@H](Nc1cc2c3c(c1)nc(-c1ccc4ncsc4c1)n3CCCO2)C1CC1 [Example 178, (S)-2-((1-(Benzo[d]thiazol-6-yl)-8,9-dihydro-7H-6-oxa-2,9a-diazabenzo[cd]azulen-4-yl)amino)-2-cyclopropylacetamide]
195 | CC(C)(C(N)=O)n1cc(-c2nc3cc(N[C@H](C(N)=O)C4CC4)cc4c3n2CCCO4)cn1 [Example 181, 2-(4-{4-[((S)-Carbamoylcyclopropylmethyl)amino]-8,9-dihydro-7H-6-oxa-2,9a-diazabenzo[cd]azulen-1-yl}pyrazol-1-yl)isobutyramide formic acid salt]
2.01 | CNc1nc2cc(-c3nc4cc(N[C@@H](C)C(N)=O)cc5c4n3CCCO5)ccc2o1 [Example 185, (S)-2-((1-(2-(Methylamino)benzo[d]oxazol-5-yl)-8,9-dihydro-7H-6-oxa-2,9a-diazabenzo[cd]azulen-4-yl)amino)propanamide]
81.4 | NC(=O)c1ccc(-c2nc3cc(N[C@H](C(N)=O)C4CC4)cc4c3n2CCCO4)cc1F [Example 188, (S)-4-(4-((2-Amino-1-cyclopropyl-2-oxoethyl)amino)-8,9-dihydro-7H-6-oxa-2,9a-diazabenzo[cd]azulen-1-yl)-2-fluorobenzamide]
0.15 | NC(=O)[C@@H](Nc1cc2c3c(c1)nc(-c1ccc(-c4nc[nH]n4)cc1)n3CCCO2)C1CC1 [Example 190, (S)-2-((1-(4-(1H-1,2,4-Triazol-3-yl)phenyl)-8,9-dihydro-7H-6-oxa-2,9a-diazabenzo[cd]azulen-4-yl)amino)-2-cyclopropylacetamide]
1.64 | Nc1nc2cc(-c3nc4cc(NC5CC(F)(F)C5)cc5c4n3CCCO5)ccc2o1 [Example 192, 1-(2-Aminobenzo[d]oxazol-5-yl)-N-(3,3-difluorocyclobutyl)-8,9-dihydro-7H-6-oxa-2,9a-diazabenzo[cd]azulen-4-amine]
5.17 | Nc1nc2cc(-c3nc4c(F)c(Br)cc5c4n3CCCO5)ccc2o1 [Example 193, 5-(4-Bromo-3-fluoro-8,9-dihydro-7H-6-oxa-2,9a-diazabenzo[cd]azulen-1-yl)benzo[d]oxazol-2-amine]
0.026 | NC(=O)[C@@H]1CCCN1c1cc2c3c(nc(-c4ccc5oc(N)nc5c4)n3CCCO2)c1F [Example 194, (S)-1-(1-(2-Aminobenzo[d]oxazol-5-yl)-3-fluoro-8,9-dihydro-7H-6-oxa-2,9a-diazabenzo[cd]azulen-4-yl)pyrrolidine-2-carb oxamide]
194 | NC(=O)[C@@H](Nc1cc2c3c(c1)nc(-c1ccnc4c1OCO4)n3CCCO2)C1CC1 [Example 195, (S)-2-((1-([1,3]Dioxolo[4,5-b]pyridin-7-yl)-8,9-dihydro-7H-6-oxa-2,9a-diazabenzo[cd]azulen-4-yl)amino)-2-cyclopropylacetamide]
314 | NC(=O)[C@@H](Nc1cc2c3c(c1)nc(-c1ccc4oc(=O)[nH]c4c1)n3CCCO2)C1CC1 [Example 196, (S)-2-Cyclopropyl-2-((1-(2-oxo-2,3-dihydrobenzo[d]oxazol-5-yl)-8,9-dihydro-7H-6-oxa-2,9a-diazabenzo[cd]azulen-4-yl)amino)acetamide]
0.717 | NC(=O)[C@@H](Nc1cc2c3c(c1)nc(-c1ccc4nc(N)nn4c1)n3CCCO2)C1CC1 [Example 201, (S)-2-((1-(2-Amino-[1,2,4]triazolo[1,5-a]pyridin-6-yl)-8,9-dihydro-7H-6-oxa-2,9a-diazabenzo[cd]azulen-4-yl)amino)-2-cyclopropylacetamide]
